According to ChEMBL document CHEMBL4196212, “Targeting Cytochrome P450 (CYP) 1B1 Enzyme with Four Series of A-Ring Substituted Estrane Derivatives: Design, Synthesis, Inhibitory Activity, and Selectivity” (J Med Chem, 2018):

Tests used:
CYP1B1 [1] = biological target: T1, CYP1B1 (Homo sapiens, UniProt Q16678); experiment: Inhibition of recombinant human CYP1B1 at 3 uM incubated for 45 mins using 7-ethyl-O-resorufin substrate in presence of NADPH regenerating system by fluorescence based ethoxyresorufin-O-deethylase assay; details: recombinant human CYP1B1, probe 7-ethyl-O-resorufin (7-ethoxyresorufin)
T1 sequence (Q16678 whole entry): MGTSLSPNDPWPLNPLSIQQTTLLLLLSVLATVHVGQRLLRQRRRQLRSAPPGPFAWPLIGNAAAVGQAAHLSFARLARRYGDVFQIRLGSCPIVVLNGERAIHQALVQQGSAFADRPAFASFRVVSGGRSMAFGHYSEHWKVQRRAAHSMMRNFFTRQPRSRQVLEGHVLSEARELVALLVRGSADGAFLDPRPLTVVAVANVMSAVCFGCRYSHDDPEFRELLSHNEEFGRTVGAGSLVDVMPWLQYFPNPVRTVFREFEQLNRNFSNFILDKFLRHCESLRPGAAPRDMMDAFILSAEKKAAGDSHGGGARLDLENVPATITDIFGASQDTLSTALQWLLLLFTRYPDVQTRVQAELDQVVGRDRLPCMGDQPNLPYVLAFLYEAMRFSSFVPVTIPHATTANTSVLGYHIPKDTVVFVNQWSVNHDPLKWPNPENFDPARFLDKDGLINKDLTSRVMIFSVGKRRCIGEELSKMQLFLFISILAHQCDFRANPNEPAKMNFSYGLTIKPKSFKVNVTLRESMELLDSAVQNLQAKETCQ

CYP1B1 [2] = biological target: T1, CYP1B1; experiment: Inhibition of recombinant human CYP1B1 at 0.3 uM incubated for 45 mins using 7-ethyl-O-resorufin substrate in presence of NADPH regenerating system by fluorescence based ethoxyresorufin-O-deethylase assay; details: recombinant human CYP1B1, probe 7-ethyl-O-resorufin (7-ethoxyresorufin)
CYP1A1 [3] = biological target: T2, CYP1A1 (Homo sapiens, UniProt P04798); experiment: Inhibition of recombinant human CYP1A1 at 0.3 uM incubated for 25 mins using 7-ethyl-O-resorufin substrate in presence of NADPH regenerating system by fluorescence based ethoxyresorufin-O-deethylase assay; type: ADME; details: recombinant human CYP1A1, probe 7-ethyl-O-resorufin (7-ethoxyresorufin)
T2 sequence (P04798 whole entry): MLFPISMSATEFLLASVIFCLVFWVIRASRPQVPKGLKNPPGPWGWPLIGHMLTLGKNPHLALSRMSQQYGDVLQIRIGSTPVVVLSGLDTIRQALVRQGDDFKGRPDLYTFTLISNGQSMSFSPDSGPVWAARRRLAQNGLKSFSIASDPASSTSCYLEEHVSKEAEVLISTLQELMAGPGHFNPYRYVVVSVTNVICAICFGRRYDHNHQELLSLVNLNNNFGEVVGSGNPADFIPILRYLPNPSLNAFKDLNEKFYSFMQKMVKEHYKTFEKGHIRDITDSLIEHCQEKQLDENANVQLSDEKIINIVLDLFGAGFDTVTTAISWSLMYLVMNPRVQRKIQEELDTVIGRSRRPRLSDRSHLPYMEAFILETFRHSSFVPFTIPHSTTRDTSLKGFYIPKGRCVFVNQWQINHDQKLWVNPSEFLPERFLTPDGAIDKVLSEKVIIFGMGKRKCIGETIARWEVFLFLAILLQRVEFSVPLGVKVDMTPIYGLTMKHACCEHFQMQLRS

CYP1A1 [4] = biological target: T2, CYP1A1; experiment: Inhibition of recombinant human CYP1A1 at 3 uM incubated for 25 mins using 7-ethyl-O-resorufin substrate in presence of NADPH regenerating system by fluorescence based ethoxyresorufin-O-deethylase assay; type: ADME; details: recombinant human CYP1A1, probe 7-ethyl-O-resorufin (7-ethoxyresorufin)

Structure (SMILES) | inhibition at 0.75 h, 3 µM (CYP1B1 [1]) [%] | inhibition at 0.75 h, 0.3 µM (CYP1B1 [2]) [%] | inhibition at 25 min, 0.3 µM (CYP1A1 [3]) [%] | inhibition at 25 min, 3 µM (CYP1A1 [4]) [%]
C[C@]12CC[C@@H]3c4cc(-c5cccnc5)c(O)cc4CC[C@H]3[C@@H]1CCC2=O | 90 | – | – | –
C[C@]12CC[C@@H]3c4cc(-c5cccc(N)c5)c(O)cc4CC[C@H]3[C@@H]1CCC2=O | 55 | 36 | – | –
C[C@]12CC[C@@H]3c4cc(-c5cccc(F)c5)c(O)cc4CC[C@H]3[C@@H]1CC[C@@H]2O | 101 | 88 | 12 | 48
C[C@]12CC[C@@H]3c4cc(-c5ccc(O)cc5)c(O)cc4CC[C@H]3[C@@H]1CCC2=O | 30 | 19 | – | –
C[C@]12CC[C@@H]3c4cc(-c5ccncc5)c(O)cc4CC[C@H]3[C@@H]1CCC2=O | 55 | – | – | –
C[C@]12CC[C@@H]3c4ccc(SCc5cccnc5)cc4CC[C@H]3[C@@H]1CCC2=O | 87 | 48 | 9 | 36
C[C@]12CC[C@@H]3c4cc(-c5ccc(Cl)cc5)c(O)cc4CC[C@H]3[C@@H]1CC[C@@H]2O | 99 | 96 | 12 | 63
C[C@]12CC[C@@H]3c4cc(-c5ccccc5)c(O)cc4CC[C@H]3[C@@H]1CC[C@@H]2O | 101 | 82 | 9 | 45
COc1ccc(-c2cc3c(cc2O)CC[C@@H]2[C@@H]3CC[C@]3(C)C(=O)CC[C@@H]23)cc1 | 103 | 95 | 8 | 18
C[C@]12CC[C@@H]3c4cc(-c5cccnc5)c(O)cc4CC[C@H]3[C@@H]1CC[C@@H]2O | 100 | – | 53 | 77
C[C@]12CC[C@@H]3c4ccc(S(C)(=O)=O)cc4CC[C@H]3[C@@H]1CC[C@@H]2O | 5 | 0 | – | –
C[S+]([O-])c1ccc2c(c1)CC[C@@H]1[C@@H]2CC[C@]2(C)C(=O)CC[C@@H]12 (stereo not given in full) | 57 | 16 | – | –
C[C@]12CC[C@@H]3c4ccc(S(C)(=O)=O)cc4CC[C@H]3[C@@H]1CCC2=O | 7 | 7 | – | –
C[C@]12CC[C@@H]3c4cc(-c5ccc(Cl)cc5)c(O)cc4CC[C@H]3[C@@H]1CCC2=O | 101 | 79 | 9 | 5
COc1cccc(-c2cc3c(cc2O)CC[C@@H]2[C@@H]3CC[C@]3(C)C(=O)CC[C@@H]23)c1 | 81 | 48 | – | –
C[C@]12CC[C@@H]3c4cc(-c5cccc(F)c5)c(O)cc4CC[C@H]3[C@@H]1CCC2=O | 101 | 67 | 3 | 23
COc1ccc(-c2cc3c(cc2O)CC[C@@H]2[C@@H]3CC[C@]3(C)[C@@H](O)CC[C@@H]23)cc1 | 100 | 97 | 14 | 51
C[S+]([O-])c1ccc2c(c1)CC[C@@H]1[C@@H]2CC[C@]2(C)[C@@H](O)CC[C@@H]12 (stereo not given in full) | 25 | 10 | – | –
CSc1ccc2c(c1)CC[C@@H]1[C@@H]2CC[C@]2(C)C(=O)CC[C@@H]12 | 34 | 14 | – | –
CSc1ccc2c(c1)CC[C@@H]1[C@@H]2CC[C@]2(C)[C@@H](O)CC[C@@H]12 | 26 | 5 | – | –
